According to PubChem BioAssay (NCI):
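48-hour exposure; five concentrations; linearly interpolated endpoints. At the GI50, growth is halved. TGI: total growth inhibition.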

What was measured:
Test in all cases: NCI anticancer screen, dose series, 48 h; in the data active means GI50 below about 0.43 µM; inactive means the rest
[1] = tested on: PC-3 prostate
[2] = tested on: NCI-H226 lung
[3] = tested on: MOLT-4 leukemia
[4] = tested on: COLO 205 colon
[5] = tested on: M14 melanoma
[6] = tested on: LOX IMVI melanoma
[7] = tested on: OVCAR-8 ovarian
[8] = tested on: IGROV1 ovarian
[9] = tested on: K-562 leukemia
[10] = tested on: NCI-H522 lung
[11] = tested on: HCT-116 colon
[12] = tested on: SF-539 CNS
[13] = tested on: U251 CNS
[14] = tested on: SW-620 colon
[15] = tested on: UACC-62 melanoma
[16] = tested on: NCI-H460 lung
[17] = tested on: SNB-75 CNS
[18] = tested on: UO-31 renal
[19] = tested on: HCC-2998 colon
[20] = tested on: MALME-3M melanoma
[21] = tested on: TK-10 renal
[22] = tested on: A549 NSCLC
[23] = tested on: CAKI-1 renal
[24] = tested on: MCF7 breast
[25] = tested on: SK-MEL-28 melanoma
[26] = tested on: SR leukemia
[27] = tested on: HL-60(TB) leukemia
[28] = tested on: RPMI-8226 leukemia
[29] = tested on: SN12C renal
[30] = tested on: SNB-19 CNS
[31] = tested on: DU-145 prostate
[32] = tested on: SF-268 CNS
[33] = tested on: SK-MEL-5 melanoma
[34] = tested on: SF-295 CNS
[35] = tested on: MDA-MB-435
[36] = tested on: T-47D breast
[37] = tested on: 786-0 renal
[38] = tested on: HCT-15 colon
[39] = tested on: KM12 colon
[40] = tested on: SK-OV-3 ovarian
[41] = tested on: RXF 393 renal
[42] = tested on: EKVX NSCLC
[43] = tested on: OVCAR-3 ovarian
[44] = tested on: HOP-92 NSCLC
[45] = tested on: ACHN renal
[46] = tested on: OVCAR-5 ovarian
[47] = tested on: MDA-MB-231 breast
[48] = tested on: CCRF-CEM leukemia
[49] = tested on: HT29 colon
[50] = tested on: SK-MEL-2 melanoma
[51] = tested on: UACC-257 melanoma
[52] = tested on: BT-549 breast
[53] = tested on: OVCAR-4 ovarian
[54] = tested on: NCI-H23 lung
[55] = tested on: HS 578T breast
[56] = tested on: HOP-62 NSCLC
[57] = tested on: A498 renal
[58] = tested on: NCI/ADR-RES ovarian
[59] = tested on: MDA-N

Cc1cc(I)cc(CNCCCN2CCSCC2)c1O
39.9 µM: TGI [48]
32.4 µM: TGI [25]
29.7 µM: TGI [8]
28.5 µM: TGI [26] | TGI [57]
29.5 µM: TGI [16]
36.3 µM: TGI [1]
24.1 µM: TGI [41]
36.4 µM: TGI [32] | TGI [40]
26.9 µM: TGI [19]
40.6 µM: TGI [36]
36.5 µM: TGI [10]
22.5 µM: TGI [33]
35.9 µM: TGI [38] | TGI [39]
35.4 µM: TGI [50]
50.3 µM: TGI [42]
46.7 µM: TGI [53]
63.7 µM: TGI [54]
41.8 µM: TGI [18] | TGI [47]
41.7 µM: TGI [46]
33.9 µM: TGI [3] | TGI [20]
34 µM: TGI [7]
28.4 µM: TGI [5] | TGI [6]
26.1 µM: TGI [9]
31 µM: TGI [13]
79.8 µM: TGI [2]
inactive: GI50 [1] 17.7 µM | GI50 [2] 24.5 µM | GI50 [3] 15.1 µM | GI50 [4] 15 µM | GI50 [5] 13.9 µM | GI50 [6] 14.6 µM | GI50 [7] 17.4 µM | GI50 [8] 13.8 µM | GI50 [9] 8.4 µM | GI50 [10] 18.4 µM | GI50 [11] 11.1 µM | GI50 [12] 16.8 µM | GI50 [13] 16.4 µM | GI50 [14] 16.5 µM | GI50 [15] 12.7 µM | GI50 [16] 14.3 µM | GI50 [17] 13.7 µM | GI50 [18] 14.3 µM | GI50 [19] 12.7 µM | GI50 [20] 17.3 µM | GI50 [21] 14.2 µM | GI50 [22] 18.7 µM | GI50 [23] 15.1 µM | GI50 [24] 15.1 µM | GI50 [25] 17 µM | GI50 [26] 10.4 µM | GI50 [27] 15.8 µM | GI50 [28] 12.4 µM | GI50 [29] 41.4 µM | GI50 [30] 18.4 µM | GI50 [31] 20.3 µM | GI50 [32] 17.2 µM | GI50 [33] 10.7 µM | GI50 [34] 11.8 µM | GI50 [35] 13.6 µM | GI50 [36] 16 µM | GI50 [37] 13 µM | GI50 [38] 17.7 µM | GI50 [39] 16.9 µM | GI50 [40] 17.9 µM | GI50 [41] 11.1 µM | GI50 [42] 19.1 µM | GI50 [43] 14.1 µM | GI50 [44] 7.57 µM | GI50 [45] 17.5 µM | GI50 [46] 15.9 µM | GI50 [47] 18.2 µM | GI50 [48] 10.4 µM | GI50 [49] 14 µM | GI50 [50] 18.6 µM | GI50 [51] 16.6 µM | GI50 [52] 5.6 µM | GI50 [53] 20.3 µM | GI50 [54] 20.9 µM | GI50 [55] 12.1 µM | GI50 [56] 14.3 µM | GI50 [57] 13.7 µM | GI50 [58] 18.1 µM
35.8 µM: TGI [27]
30.9 µM: TGI [15]
31.6 µM: TGI [24]
26.6 µM: TGI [35] | TGI [55]
39.2 µM: TGI [22]
36.6 µM: TGI [58]
23 µM: TGI [11]
33.8 µM: TGI [45]
32.7 µM: TGI [23]
30.3 µM: TGI [14]
34.1 µM: TGI [51]
22.3 µM: TGI [44]
24.6 µM: TGI [34]
28.8 µM: TGI [17]
25.8 µM: TGI [37]
27.8 µM: TGI [49]
41 µM: TGI [30]
27.7 µM: TGI [43]
30.8 µM: TGI [4] | TGI [12] | TGI [28]
28.3 µM: TGI [56]
42.7 µM: TGI [31]
29.3 µM: TGI [21]
> 100 µM: TGI [29]
20.2 µM: TGI [52]

COc1ccccc1N/C(=C\C(=O)C(=O)NC12CC3CC(CC(C3)C1)C2)c1ccccc1
> 10 µM: TGI [1] | TGI [2] | TGI [3] | TGI [4] | TGI [5] | TGI [6] | TGI [7] | TGI [8] | TGI [9] | TGI [10] | TGI [12] | TGI [13] | TGI [14] | TGI [16] | TGI [17] | TGI [18] | TGI [19] | TGI [20] | TGI [21] | TGI [59] | TGI [23] | TGI [24] | TGI [25] | TGI [26] | TGI [27] | TGI [28] | TGI [29] | TGI [31] | TGI [32] | TGI [33] | TGI [34] | TGI [35] | TGI [36] | TGI [37] | TGI [38] | TGI [39] | TGI [40] | TGI [41] | TGI [42] | TGI [43] | TGI [45] | TGI [46] | TGI [47] | TGI [48] | TGI [49] | TGI [50] | TGI [51] | TGI [53] | TGI [54] | TGI [55] | TGI [56] | TGI [57] | TGI [58]

CCOC(=O)c1csc(NC(=O)CCN(CC)CC)n1
62 µM: TGI [25]
90.3 µM: TGI [3]
62.8 µM: TGI [21]
52.8 µM: TGI [39]
92.8 µM: TGI [14]
84.8 µM: TGI [4]
56.8 µM: TGI [12]
69 µM: TGI [43]
42.8 µM: TGI [23]
73.5 µM: TGI [17]
55.5 µM: TGI [24]
> 100 µM: TGI [1] | TGI [6] | TGI [8] | TGI [9] | TGI [13] | TGI [15] | TGI [16] | TGI [18] | TGI [19] | TGI [22] | TGI [59] | TGI [26] | TGI [27] | TGI [28] | TGI [30] | TGI [31] | TGI [33] | TGI [34] | TGI [35] | TGI [36] | TGI [40] | TGI [41] | TGI [42] | TGI [45] | TGI [46] | TGI [47] | TGI [50] | TGI [51] | TGI [53] | TGI [54] | TGI [56] | TGI [57] | TGI [58]
75.3 µM: TGI [38]
83.3 µM: TGI [48]
69.3 µM: TGI [44]
95.9 µM: TGI [7]
64.1 µM: TGI [5]
64.6 µM: TGI [49]
89 µM: TGI [2]
